The source of these data is patent US5258395A, “Thiazole compounds as inhibitors of SRS-A” (Yamanouchi Pharmaceutical Co., Ltd., priority 1984, dated 1993).

In data set [1] the test system is SRS-A-induced contraction of guinea pig ileum. The experiment in a line: Inhibition of SRS-A-induced contraction of guinea pig ileum. Particulars: submaximal concentration of SRS-A (derived from guinea-pig lung), 20 min incubation, read-out: Anti-SRS-A GP ileum IC50. The protocol:
(§1) Initiation of SRS-A- and LTD4 -Induced Contraction of Guinea Pig Ileum and Trachea
(§2) Method: Male Hartley guinea-pigs, weighing 500 to 700 g were killed by a blow on the head. The ileum and tracheal strips prepared according to the method of Constantine (1965) were suspended with 1.0 g tension in an organ bath containing 10 ml of Tyrode's solution equilibrated with a mixture of 95% O2 and 5% CO2 at 37° C. The tissues were equilibrated for 60 min.; during this period the Tyrode solution was replaced every 15 min. and the loading tension was adjusted to 1.0 g. The developed tension of the tissues was measured isometrically with a strain gauge transducer, and recorded on a Recticorder. Both the contractile response of the ileum to submaximal concentration of SRS-A (derived from guinea-pig lung) and the tracheal response to 10^-8 M LTD4 were measured in the absence and then the presence of various concentrations of test compounds. The incubation time of the compounds was 20 min.

Data set [2] has as its system mice. The experiment in a line: Toxicity, oral administration to mice. The format is in vivo. Particulars: orally.
Data set [3] has as its system LTD4-induced contraction of guinea pig trachea. The experiment in a line: Inhibition of LTD4-induced contraction of guinea pig trachea. Particulars: 10^-8 M LTD4, 20 min incubation, read-out: Anti-LTD4 GP trachea IC50. How it is done:
as §1, §2

Data set [4] concerns SRS-A-mediated anaphylactic asthma. The experiment in a line: Inhibition of SRS-A-mediated anaphylactic asthma in conscious guinea-pigs. The format is in vivo, guinea pig. Conditions: for Time to onset of cough / Mortality: 30 min before antigen challenge; for Time to onset of cough: N=8. The protocol:
Inhibition of SRS-A-Mediated Anaphylactic Asthma in Conscious Guinea-Pigs
Method: Male Harley guinea-pigs, weighing 370 to 410 g were passively sensitized by intravenously injecting 1 ml/kg of rabbit […] anti-bovine serum albumin serum (PHA titer: 20480). Twenty-four hours after the sensitization, indomethacine (2 mg/kg), mepyramine (2 mg/kg) and propranolol (0.3 mg/kg) were injected into the saphenous vein 20, 5 and 5 min., respectively, prior to the antigen challenge. Then, animals were placed in an 11 liter chamber connected to a glass nebulizer, and 1% solution of bovin serum albumin was sprayed into the chamber for 30 seconds. The animals were exposed to the antigen aerosol for 2 min. and observed for 15 min. after challenge. The time from the start of inhalation to the onset of cough and the mortality were recorded. Test compounds were orally administered 30 min. before antigen challenge.
^a) Animals were pretreated with mepyramine (2 mg/kg i.v.),
propranolol (0.3 mg/kg i.v.) and indomethacine (2 mg/kg i.v.) 5, 5 and 20
min., respectively, prior to antigen challenge.
^b) Test compound was orally administered 30 min. before antigen

For data set [5], the system named is rats. The data set can be described thus: Toxicity, oral administration to rats. The format is in vivo. Conditions: orally.
For data set [6], the system named is SRS-A. Conditions: cited from earlier work.
For data set [7] the following is noted: cited from earlier work.

`CCCc1c(OCCCSc2nnc(N)s2)ccc(C(C)=O)c1O` [Example 2, 4-[3-[(5-amino-1,3,4-thiadizol-2-yl)thio]propoxy]-2-hydroxy-3-propylacetophenone]: in data set [1], the IC50 was 180 nM.

As for `CCCc1c(OCCCSc2nnc(S)s2)ccc(C(C)=O)c1O` [Example 7, 2-Hydroxy-4-[[3-(5-mercapto-1,3,4-thiadiazol-2-yl)thio]propoxy]-3-propylacetophenone], the IC50 in data set [1] was 110 nM.

Regarding `CCCc1c(OCCCSc2nnc(SCC(=O)O)s2)ccc(C(C)=O)c1O` [Example 21, [[5-[[3-(4-acetyl-3-hydroxy-2-propylphenoxy)propyl]thio]-1,3,4-thiadiazol-2-yl]thio]acetic acid], the minimum fatal dose result in data set [2] and in data set [5] was “more than 1000 mg/kg” throughout. The IC50 in data set [3] worked out at 130 nM; in data set [1], 60 nM. In addition, the “Inhibition of SRS-A-mediated anaphylactic asthma (in words)” value in data set [4] (3 mg/kg p.o.) is “tended to inhibit the SRS-A-mediated anaphylactic asthma in conscious guinea-pigs, but this effect was not significant”; in data set [4] (10 mg/kg p.o. or higher), “significantly inhibited the SRS-A-mediated anaphylactic asthma”. The “Time to onset of cough” value in data set [4] (3 mg/kg p.o., control 293 ± 22) amounted to 377 ± 51 s; in data set [4] (10 mg/kg p.o., control 281 ± 19, * significant vs control) it was 397 ± 42 s; in data set [4] (30 mg/kg p.o., control 281 ± 11, ** p < 0.01 vs control), 457 ± 42 s. Also, the Mortality is 5/8 in data set [4] (3 mg/kg p.o., control 6/8); 2/8 in data set [4] (10 mg/kg p.o., control 7/8, * significant vs control); 2/8 in data set [4] (30 mg/kg p.o., control 7/8, * significant vs control). In the case of `CCCc1c(OCCCCSc2nnc(SCC(=O)O)s2)ccc(C(C)=O)c1O` [Example 23, [[5-[[4-(4-acetyl-3-hydroxy-2-propylphenoxy)butyl]thio]-1,3,4-thiadiazol-2-yl]thio]acetic acid], the IC50 in data set [1] came to 150 nM. The same measure, in the same setting: the result for `CCCc1c(OCCCCCSc2nnc(SCC(=O)O)s2)ccc(C(C)=O)c1O` [Example 24, [[5-[[5-(4-Acetyl-3-hydroxy-2-propylphenoxy)pentyl]thio]-1,3,4-thiadiazol-2-yl]thio]acetic acid] reads 190 nM.

In the case of `CCCc1c(OCCCSc2nnc(SCCC(=O)O)s2)ccc(C(C)=O)c1O` [Example 26], the IC50 in data set [1] came out at 120 nM.

As for `CCCc1c(OCCCSc2snc(O)c2C(=O)O)ccc(C(C)=O)c1O` [Example 27, 5-[[3-(4-acetyl-3-hydroxy-2-propylphenoxy)propyl]thio]-3-hydroxy-4-isothiazol carboxylic acid], in data set [1], the IC50 came out at 190 nM. Take `CCCc1c(OCCCSc2nnc(NC(=O)CC(=O)O)s2)ccc(C(C)=O)c1O` [Example 33, 3-[[5-[[3-(4-acetyl-3-hydroxy-2-propylphenoxy)propyl]thio]-1,3,4-thiadiazol-2-yl]amino]-3-oxopropionic acid]: the IC50 in data set [1] came to 91 nM. For the compound `CCCc1c(OCCCSc2nnc(NC(=O)C(=O)O)s2)ccc(C(C)=O)c1O` [Example 36, N-[5-[[3-(4-Acetyl-3-hydroxy-2-propylphenoxy)propyl]thio]-1,3,4-thiadizol-2-yl]oxamic acid], in data set [1], the IC50 came out at 140 nM. For `CCCc1c(OCCCSc2cc(C(=O)O)nc(SC)n2)ccc(C(C)=O)c1O` [Example 37, 6-[[3-(4-Acetyl-3-hydroxy-2-propylphenoxy)propyl]thio]-2-methylthio-4-pyrimidinecarboxylic acid], in data set [1], the IC50 was 52 nM. For the compound `CCCc1c(OCCCSc2nnc(SCCCC(=O)O)s2)ccc(C(C)=O)c1O` [Example 38, 4-[[5-[[3-(4-Acetyl-3-hydroxy-2-propylphenoxy)propyl]thio]-1,3,4-thiadiazol-2-yl]thio]butyric acid], the values for the IC50 in data set [3] and in data set [1] were 230 nM and 38 nM, respectively. With `CCCc1c(OCCCSc2nnc(SCCCCC(=O)O)s2)ccc(C(C)=O)c1O` [Example 41, 5-[[5-[[3-(4-Acetyl-3-hydroxy-2-propylphenoxy)propyl]thio]-1,3,4-thiadiazol-2-yl]thio]valeric acid], in data set [1], the IC50 worked out at 64 nM. Same read-out and setting: the value for `CCCc1c(OCCCSc2nnc(SCCCCCC(=O)O)s2)ccc(C(C)=O)c1O` [Example 42, 6-[[5-[[3-(4-Acetyl-3-hydroxy-2-propylphenoxy)propyl]thio]-1,3,4-thiadizol-2-yl]thio]hexanoic acid] was 130 nM; that for `CCCc1c(OCCCSc2nnc(SC(C)CCC(=O)O)s2)ccc(C(C)=O)c1O` (stereo not shown) [Example 44, 4-[[5-[[3-(4-Acetyl-3-hydroxy-2-propylphenoxy)propyl]thio]-1,3,4-thiadizol-2-yl]thio]valeric acid] was 130 nM. On to `CCCc1c(OCCCSc2nnc(SCC(=O)N(C)O)s2)ccc(C(C)=O)c1O` [Example 51, 2-[[5-[[3-(4-acetyl-3-hydroxy-2-propylphenoxy)propyl]thio]-1,3,4-thiadiazol-2-yl]thio]-N-hydroxy-N-methylacetamide], for which the figures for the half-inhibitory concentration (IC50) in data set [3] and in data set [1] were 420 nM and 160 nM, respectively. With `CCCc1c(OCC(O)COc2ccc3c(=O)cc(C(=O)O)oc3c2CCC)ccc(C(C)=O)c1O` (stereo not shown) [FPL 55712], the “anti-SRS-A activity in isolated tissues” value in data set [6] is on record as “potent anti-SRS-A activity in isolated tissues”. The biological half life result in data set [7] (in vivo) is recorded as “very short”. Also, the “absorption by oral route” value in data set [7] (oral route) is “very poor”.

By IC50 is commonly meant the concentration that inhibits the measured activity by half.
